Measured values published in US20250313619A1, “RISANKIZUMAB COMPOSITIONS” (ABBVIE INC., priority 0001, published 2025).

Assays:
[1] = biological target: T1, PLA2G15 (Cricetulus griseus, UniProt G3HKV9); experiment: PLA2G15 inhibition study: fosinopril spiked in DP2 material, PS20 HPLC-CAD subspecies method; format: biochemical; details: room temperature in dark for two weeks
T1 construct: PLA2 in the liquid compositions described herein is derived from a CHO cell line; endogenous in cells; host or cells: CHO cells expressing risankizumab (host-cell protein carried into drug substance/drug product)
T1 sequence (G3HKV9 34-412): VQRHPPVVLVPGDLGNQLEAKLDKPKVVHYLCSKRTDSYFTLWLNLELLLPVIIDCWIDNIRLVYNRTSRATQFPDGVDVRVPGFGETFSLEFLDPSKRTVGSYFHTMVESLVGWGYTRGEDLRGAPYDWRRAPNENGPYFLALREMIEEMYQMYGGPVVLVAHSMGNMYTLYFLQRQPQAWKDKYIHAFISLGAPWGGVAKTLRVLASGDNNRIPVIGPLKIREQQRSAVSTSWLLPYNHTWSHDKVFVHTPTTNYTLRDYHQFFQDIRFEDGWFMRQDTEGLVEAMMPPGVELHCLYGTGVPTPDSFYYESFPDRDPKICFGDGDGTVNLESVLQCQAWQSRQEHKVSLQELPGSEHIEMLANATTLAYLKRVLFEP
Method: Fosinopril is an angiotensin converting enzyme (ACE) inhibitor, which is been used to treat hypertension and some types of chronic heart failure (Murdoch et al. (1992) Drugs 43:123-140). […] All samples (including non-spiked samples) were incubated at room temperature in the dark for two weeks. PS20 degradation levels in those samples were tested with a PS20 subspecies method. PS20 degradation levels in those samples were compared with negative controls (non-spiked samples kept at room temperature in dark for two weeks) and positive controls (non-spiked samples kept at −80° C. before testing). […] The chemical structure of fosinopril is shown below.
Fosinopril sodium was dissolved in Mill-Q water at a concentration of 0.5 mg/mL. The solution was aseptically filtered with a 0.22 syringe filter before use. During the filtration, the syringe filter was flushed with Mill-Q water and then with the 0.5 mg/mL fosinopril water solution. Lower concentrations of fosinopril water solutions were aseptically diluted with Mill-Q water. More detailed sample preparation can be found in Table 22. All vials were glass vials, and solutions were well mixed before incubation. Samples were incubated at room temperature in dark for two weeks before testing.
A PS20 HPLC-CAD subspecies method was used to test the PS20 levels qualitatively as well as profiles in all samples. Solutions were transferred to HPLC vials and diluted with Milli-Q water (1:1 dilution). All HPLC vials were mixed well before placed in an HPLC autosampler for testing. Sample descriptions and labels can be found in Table 23.

[2] = biological target: T2, PLA2G15 (Phospholipase A2 Group XV) (Homo sapiens, UniProt Q8NCC3); details: Hinkovska-Galcheva et al. (2021); read-out: IC50, inhibition of PLA2G15 activity; cited from earlier work
T2 sequence (Q8NCC3 34-412): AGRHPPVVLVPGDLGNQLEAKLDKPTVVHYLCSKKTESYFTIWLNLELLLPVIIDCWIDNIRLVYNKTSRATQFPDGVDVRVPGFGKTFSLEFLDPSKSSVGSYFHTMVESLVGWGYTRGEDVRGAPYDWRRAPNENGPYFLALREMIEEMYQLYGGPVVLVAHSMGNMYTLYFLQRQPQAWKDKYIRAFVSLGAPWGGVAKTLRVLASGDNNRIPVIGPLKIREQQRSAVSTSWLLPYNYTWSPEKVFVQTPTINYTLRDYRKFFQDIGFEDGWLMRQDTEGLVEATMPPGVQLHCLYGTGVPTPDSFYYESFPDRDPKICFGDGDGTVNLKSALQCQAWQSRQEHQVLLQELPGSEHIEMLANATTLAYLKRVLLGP

## CCC(=O)O[C@@H](O[P@](=O)(CCCCc1ccccc1)CC(=O)N1C[C@H](C2CCCCC2)C[C@H]1C(=O)O)C(C)C [fosinopril]
[1]; 0.9 μg/mL spiking level, vs non-spiked control
  protection (inhibition) of PS20 degradation in the DP2 material: reduction of PS20 degradation has been observed
[1]; 0.9 μg/mL spiking level, vs non-spiked control, listed as Fosinopril
  protection (inhibition) of PS20 degradation in the DP2 material: showed protection (inhibition)
[1]; 0.9-83.3 ug/mL spiked
  protection (inhibition) of PS20 degradation in the DP2 material: Dose (concentration) dependent protection (inhibition)
[1]; 0.9-83.3 ug/mL spiked, listed as Fosinopril
  protection (inhibition) of PS20 degradation in the DP2 material: dose dependent protection (inhibition)
[2]
  IC50: ~180 nM
